Here are results for seven compounds from US4904462A, “Multiply-tritiated steroidal-20,17-spirolactones and their use as tracer compounds” (Schering Aktiengesellschaft, priority 1984, dated 1990).

Data set [1] has as its target T1, mineralocorticoid receptor (Rattus norvegicus, UniProt P22199).
T1 construct: Cytosol from human uterus, rat kidneys and rat livers was prepared by homogenizing the tissues; from tissue; host or cells: kidney cytosol of adrenalectomized rats
T1 sequence (P22199 1-981): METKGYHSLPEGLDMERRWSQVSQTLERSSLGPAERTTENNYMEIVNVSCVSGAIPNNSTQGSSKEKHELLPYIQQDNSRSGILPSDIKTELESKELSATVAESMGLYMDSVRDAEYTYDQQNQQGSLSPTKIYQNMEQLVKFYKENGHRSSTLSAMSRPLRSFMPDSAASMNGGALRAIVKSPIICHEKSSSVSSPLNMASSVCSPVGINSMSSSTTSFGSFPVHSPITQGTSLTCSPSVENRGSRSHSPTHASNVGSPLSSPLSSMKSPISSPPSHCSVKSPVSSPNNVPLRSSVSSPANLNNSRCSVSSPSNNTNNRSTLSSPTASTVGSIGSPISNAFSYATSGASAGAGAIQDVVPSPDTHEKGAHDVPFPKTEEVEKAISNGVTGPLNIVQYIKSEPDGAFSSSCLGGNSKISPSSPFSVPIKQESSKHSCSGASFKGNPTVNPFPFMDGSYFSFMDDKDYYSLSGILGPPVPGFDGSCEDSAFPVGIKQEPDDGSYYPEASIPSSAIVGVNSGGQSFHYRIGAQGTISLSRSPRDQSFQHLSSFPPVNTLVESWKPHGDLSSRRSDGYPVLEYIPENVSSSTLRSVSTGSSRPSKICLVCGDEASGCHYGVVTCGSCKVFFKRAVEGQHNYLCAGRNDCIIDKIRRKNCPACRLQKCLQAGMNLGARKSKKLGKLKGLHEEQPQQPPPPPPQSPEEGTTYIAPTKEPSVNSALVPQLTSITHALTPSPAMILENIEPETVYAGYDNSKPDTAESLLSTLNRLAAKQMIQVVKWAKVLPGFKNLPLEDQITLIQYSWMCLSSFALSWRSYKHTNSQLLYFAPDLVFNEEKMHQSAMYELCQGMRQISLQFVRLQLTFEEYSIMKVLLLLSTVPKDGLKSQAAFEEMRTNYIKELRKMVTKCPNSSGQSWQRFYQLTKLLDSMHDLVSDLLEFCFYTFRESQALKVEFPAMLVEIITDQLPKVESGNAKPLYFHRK
As to the kind of experiment: Relative binding affinity, mineralocorticoid receptor, kidney cytosol, 3H-aldosterone displacement. As to conditions: kidney cytosol of adrenalectomized rats; 3H-aldosterone 8 nmol/l; aldosterone = 100% RBA. The method, then: (§1) The relative binding affinities (RBA values) of aldosterone, prorenone as well as the compounds of this invention were determined, for the progesterone receptor, in human uterus cytosol, for the glucocorticoid receptor, in liver cytosol, and for the mineralocorticoid receptor, in the kidney cytosol of adrenalectomized rats. The relative binding affinity with respect to CBG was measured in the serum of pregnant women, diluted 1:30.
(§2) Cytosol from human uterus, rat kidneys and rat livers was prepared by homogenizing the tissues under cooling with the addition of receptor-stabilizing buffer (10 mmol/1 of KH2 PO4, 10 mmol/1 of K2 HPO4, 1.5 mmol/1 of EDTA, 3 mmol/1 of NaN3, 5 mmol/1 of monothioglycerol, 10% glycerol, pH 7.5). The homogenate was then centrifuged for 30 minutes at 105,000×g. The thus-formed supernatant centrifugation liquor corresponds to the tissue cytosol utilized for receptor testing. Then, in each case, 50 μl of a ^3 H-steroid (^3 H-R5020) for progesterone receptor testing, ^3 H-dexamethasonefor glucocorticoid receptor testing, ^3 H-aldosterone for mineralocorticoid receptor testing), dissolved in a buffer, was pipetted into test tubes (final concentration 8 nmol/1). Thereafter, the various steroids to be tested (in respectively six different concentrations: 10^-10 to 10^-5 mol/1) in 50 μl of buffer were added to the incubating tubes. Finally, 100 μl of cytosol was introduced into each tube by pipetting, and the incubation batch was thoroughly mixed and incubated overnight at 0°-4° C. Incubation was terminated by adding 0.5 ml of dextran-layered activated carbon (DCC) in a buffer. After 10 minutes of incubation under cooling, DCC was removed by centrifuging and thus the free, not receptor-bound steroid was separated from the receptor-bound steroid. The radioactivity was measured in the supernatant centrifugation liquors by means of a scintillation counter. All thus-determined values result from triple measurements. The measured dpm values were expressed in % of relative binding affinity, the RBA value referring to 50% displacement of the ^3 H-labeled ligand by its unlabeled authentic steroid (=100% RBA).

The target in the next data set is T2, glucocorticoid receptor (Rattus norvegicus, UniProt P06536).
T2 construct: Cytosol from human uterus, rat kidneys and rat livers was prepared by homogenizing the tissues; from tissue; host or cells: rat liver cytosol
T2 sequence (P06536 1-795): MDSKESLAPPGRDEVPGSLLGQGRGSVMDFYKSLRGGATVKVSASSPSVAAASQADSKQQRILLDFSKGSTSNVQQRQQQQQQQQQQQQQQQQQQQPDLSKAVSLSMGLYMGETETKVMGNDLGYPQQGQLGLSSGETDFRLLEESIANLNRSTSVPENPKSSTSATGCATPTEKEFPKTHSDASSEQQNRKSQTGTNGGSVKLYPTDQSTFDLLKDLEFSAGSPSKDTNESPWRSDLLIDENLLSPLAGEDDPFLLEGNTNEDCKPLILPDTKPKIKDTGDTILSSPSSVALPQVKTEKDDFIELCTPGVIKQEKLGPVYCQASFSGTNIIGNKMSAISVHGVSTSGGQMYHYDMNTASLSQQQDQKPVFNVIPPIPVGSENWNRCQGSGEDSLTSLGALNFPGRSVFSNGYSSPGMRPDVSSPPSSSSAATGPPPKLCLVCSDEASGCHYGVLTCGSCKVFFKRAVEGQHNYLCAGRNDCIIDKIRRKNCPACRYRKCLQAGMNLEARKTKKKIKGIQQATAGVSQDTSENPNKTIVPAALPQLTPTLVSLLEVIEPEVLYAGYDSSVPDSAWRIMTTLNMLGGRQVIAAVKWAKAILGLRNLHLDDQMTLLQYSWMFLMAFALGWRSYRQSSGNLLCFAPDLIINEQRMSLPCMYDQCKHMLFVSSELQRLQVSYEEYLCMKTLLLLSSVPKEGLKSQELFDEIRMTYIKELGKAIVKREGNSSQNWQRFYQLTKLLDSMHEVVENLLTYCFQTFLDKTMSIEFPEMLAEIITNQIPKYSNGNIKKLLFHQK
Description: Relative binding affinity, glucocorticoid receptor, liver cytosol, 3H-dexamethasone displacement. The conditions noted are these: for Relative binding affinity (RBA), Glucocorticoid Receptor: rat liver cytosol, 3H-dexamethasone 8 nmol/l, dexamethasone = 100% RBA. The protocol: as §1, §2

The test system of the next data set is progesterone receptor. As to the kind of experiment: Relative binding affinity, progesterone receptor, human uterus cytosol, 3H-R5020 displacement. The conditions noted are these: 3H-R5020 8 nmol/l, R5020 = 100% RBA. The method, then:
as §1, §2

The target of a further data set is T3, CBG (Homo sapiens, UniProt P08185).
T3 construct: a 1:30 dilution of the serum of pregnant women as the source of CBG; from tissue; host or cells: serum of pregnant women, diluted 1:30
T3 sequence (P08185 23-405): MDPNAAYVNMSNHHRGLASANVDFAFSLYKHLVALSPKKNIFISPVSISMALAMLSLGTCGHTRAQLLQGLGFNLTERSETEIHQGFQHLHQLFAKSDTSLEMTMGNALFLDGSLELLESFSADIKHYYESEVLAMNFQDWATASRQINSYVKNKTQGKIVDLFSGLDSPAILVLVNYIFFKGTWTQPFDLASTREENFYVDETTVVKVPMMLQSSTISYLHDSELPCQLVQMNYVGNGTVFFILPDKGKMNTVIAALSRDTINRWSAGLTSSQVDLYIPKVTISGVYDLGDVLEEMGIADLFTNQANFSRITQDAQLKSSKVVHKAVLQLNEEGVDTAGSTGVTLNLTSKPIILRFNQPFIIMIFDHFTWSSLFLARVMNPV
Description: Relative binding affinity to CBG, serum of pregnant women, 3H-cortisol displacement. The conditions noted are these: for Relative binding affinity (RBA), CBG: serum of pregnant women diluted 1:30, 3H-cortisol, cortisol = 100% RBA. The method, then: as §1
As for the RBA values, for CBG an analogous procedure was followed, using ^3 H-cortisol and a 1:30 dilution of the serum of pregnant women as the source of CBG.

A short description of data set [2]: Metabolic stability under the conditions of the receptor test. In kind it is in vitro ADME. The conditions noted are these: in vitro receptor test conditions.

With “1α,2α;15β,16β-dimethylene-7α-methoxycarbonyl-3-oxo-17α-[18,19-^3 H4 ]pregn-4-ene-21,17-carbolactone [Example 7]”, in data set [1], the “Relative binding affinity (RBA), Mineralocorticoid Receptor” value is on record as 600%. Further, the “Relative binding affinity (RBA), Glucocorticoid Receptor” value on glucocorticoid receptor is reported as 0.2%. Besides, the “Relative binding affinity (RBA), Progesterone Receptor” value with progesterone receptor is on record as 0.2%. In addition, on CBG, the “Relative binding affinity (RBA), CBG” value is less than 0.1%.
“6μ,7β;15β,16β-dimethylene-3-oxo-17α-[18,19-^3 H4 ]pregna-1,4-diene-21,17-carbolactone [Example 3]”: the “Relative binding affinity (RBA), Mineralocorticoid Receptor” value in data set [1] turned out to be 90%. For the same compound, on glucocorticoid receptor, the “Relative binding affinity (RBA), Glucocorticoid Receptor” value turned out to be 0.9%. Further, in the data set on progesterone receptor, the “Relative binding affinity (RBA), Progesterone Receptor” value is on record as 50%. In addition, the “Relative binding affinity (RBA), CBG” value on CBG was less than 0.1%.
Take “7α-(^3 H3)methoxycarbonyl-15β,16β-methylene-3-oxo-17α-[18,19-^3 H4 ]pregn-4-ene-21,17-carbolactone [Example 4]”: the “Relative binding affinity (RBA), Mineralocorticoid Receptor” value in data set [1] worked out at 400%. Besides, the “Relative binding affinity (RBA), Glucocorticoid Receptor” value at glucocorticoid receptor was 0.8%. In the data set on progesterone receptor, the “Relative binding affinity (RBA), Progesterone Receptor” value was determined as 0.5%. Moreover, the “Relative binding affinity (RBA), CBG” value on CBG is reported as less than 0.1%.
In the same order, the values of “7α-[1'-(^3 H3)-ethoxy]carbonyl-15β,16β-methylene-3-oxo-17α-pregn-4-ene-21,17-carbolactone [Example 8]” are 800%, 0.8%, 0.95% and less than 0.1%.
In the same order, the values of “7α-[1'-(^3 H3)ethoxy]carbonyl-15β,16β-methylene-3-oxo-17α-pregna-1,4-diene-21,17-carbolactone [Example 6]” are 600%, 0.4%, 0.2% and less than 0.1%.
For `C[C@]12CCC(=O)C=C1CC[C@@H]1[C@@H]2[C@@H](O)C[C@]2(C=O)[C@@H](C(=O)CO)CC[C@@H]12` [Aldosterone, reference compound], at glucocorticoid receptor, the “Relative binding affinity (RBA), Glucocorticoid Receptor” value amounted to 30%. Also, the “relative binding affinity in rat liver cytosol” value on glucocorticoid receptor (with respect to dexamethasone) is on record as 30%. In the data set on progesterone receptor, the “Relative binding affinity (RBA), Progesterone Receptor” value is recorded as 0.2%. In addition, on CBG, the “Relative binding affinity (RBA), CBG” value is 6%. Also, on CBG (with respect to cortisol), the “relative binding affinity (RBA value) to the human serum protein CBG” value stood at 6%. Further, the “metabolic stability under the conditions of the receptor test” value in data set [2] is recorded as “is metabolized under in vitro conditions of receptor testing”.
On to `C[C@]12CCC(=O)C=C1[C@@H]1C[C@@H]1[C@H]1[C@@H]3[C@@H]4C[C@@H]4[C@@]4(CCC(=O)O4)[C@@]3(C)CC[C@@H]12` [Prorenone, reference compound], for which, in data set [1], the “Relative binding affinity (RBA), Mineralocorticoid Receptor” value amounted to 200%. In addition, the “Relative binding affinity (RBA), Glucocorticoid Receptor” value at glucocorticoid receptor is 3%. In addition, the “Relative binding affinity (RBA), Progesterone Receptor” value in the data set on progesterone receptor was determined as 32%. Moreover, on CBG, the “Relative binding affinity (RBA), CBG” value was less than 0.01%.
